In patent US10358434B2, “2-(3-pyridinyl)-1H-benzimidazole derivative compound and medicament containing same” (NIHON MEDI-PHYSICS CO., LTD., priority 2014, dated 2019):

How the values were obtained:
[1] = tested on: human adrenal gland section expressing aldosterone-producing adenoma; experiment: In vitro autoradiography using human adrenal adenoma; assay type: binding; conditions: section of FIG. 17(b)
Outline: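 Frozen 7-μm sections of human adrenal bearing aldosterone-producing adenoma were immersed 10 min in radioligand (5-33 kBq/mL) in PBS with 1% fatty-acid-free BSA, washed, then exposed to imaging plates for 16-20 h. Equal-area ROI PSL in adenoma (B2) versus normal cortex (B1) gave B2/B1, corrected for nuclide half-life, added activity and exposure time.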

[2] = Plasma stability evaluation (TLC analysis); assay type: in vitro ADME; conditions: 37° C., 60 minutes, TLC analysis
Outline: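 Radiolabelled compounds were incubated in heparin-treated pooled normal human plasma at 37° C for 60 minutes. After methanol deproteinization and centrifugation, stability was assessed by TLC under the conditions used for each compound's synthesis.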

[3] = In vivo kinetics experiment (radioactivity distribution); parameters: species or system Wistar male rat; conditions: rat, caudal vein
Outline: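 Male Wistar rats (9 weeks) under isoflurane received approximately 1 to 3.7 MBq radiotracer in saline with 1 w/v % ascorbic acid by tail-vein injection. At 10, 30 and 60 min, rats were exsanguinated; blood, organs and remaining body weighed and counted, giving % ID/g and adrenal-to-tissue ratios.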

SMILES: [123I]c1ccc2nc(-c3cncc(Cn4ccnn4)c3)n(C3CC3)c2c1 [[^123I] 603, 1-Cyclopropyl-2-[3-(1H-1,2,3-triazol-1-ylmethyl)pyridin-5-yl]-6-[^123I]iodo-1H-benzimidazole]
- B2/B1 accumulation ratio [1]: 1.01
- B2 (PSL value, aldosterone-producing adenoma) ([1]; site 71b): 2043
- B1 (PSL value, normal adrenal cortex) ([1]; site 72b): 2027
- Radiochemical purity after incubation in human plasma [2]: 94%
- Adrenal gland/blood ratio of radioactivity accumulation ([3]; 10 min after administration): 52.24 ± 16.82
- Adrenal gland/fat ratio of radioactivity accumulation ([3]; 10 min after administration): 49.21 ± 30.24
- Adrenal gland/kidney ratio of radioactivity accumulation ([3]; 10 min after administration): 3.95 ± 1.50
- Adrenal gland/liver ratio of radioactivity accumulation ([3]; 10 min after administration): 4.37 ± 1.12
- Adrenal gland/muscle ratio of radioactivity accumulation ([3]; 10 min after administration): 34.85 ± 6.45
- Adrenal gland/small intestine ratio of radioactivity accumulation ([3]; 10 min after administration): 3.44 ± 1.04
- Radioactivity distribution Adrenal gland ([3]; 10 min after administration): 10.24 ± 4.48 % ID/g
- Radioactivity distribution Bladder (including urine) ([3]; 10 min after administration): 0.43 ± 0.13 % ID/g
- Radioactivity distribution Blood ([3]; 10 min after administration): 0.13 ± 0.01 % ID/g
- Radioactivity distribution Fat ([3]; 10 min after administration): 0.11 ± 0.01 % ID/g
- Radioactivity distribution Femur ([3]; 10 min after administration): 0.85 ± 0.40 % ID/g
- Radioactivity distribution Heart ([3]; 10 min after administration): 0.65 ± 0.09 % ID/g
- Radioactivity distribution Kidney ([3]; 10 min after administration): 2.09 ± 0.09 % ID/g
- Radioactivity distribution Large intestine ([3]; 10 min after administration): 0.11 ± 0.01 % ID/g
- Radioactivity distribution Liver ([3]; 10 min after administration): 4.09 ± 0.45 % ID/g
- Radioactivity distribution Lung ([3]; 10 min after administration): 0.98 ± 0.16 % ID/g
- Radioactivity distribution Muscle (lower limbs) ([3]; 10 min after administration): 0.18 ± 0.05 % ID/g
- Radioactivity distribution Remaining whole body ([3]; 10 min after administration): 0.24 ± 0.01 % ID/g
- Radioactivity distribution Small intestine ([3]; 10 min after administration): 1.29 ± 0.12 % ID/g
- Radioactivity distribution Spleen ([3]; 10 min after administration): 5.59 ± 1.78 % ID/g
- Radioactivity distribution Stomach ([3]; 10 min after administration): 0.66 ± 0.34 % ID/g
- Radioactivity distribution Testis ([3]; 10 min after administration): 0.04 ± 0.01 % ID/g
- Radioactivity distribution Whole brain ([3]; 10 min after administration): 0.01 ± 0.00 % ID/g
- Adrenal gland/blood ratio of radioactivity accumulation ([3]; 30 min after administration): 199.21 ± 91.92
- Adrenal gland/fat ratio of radioactivity accumulation ([3]; 30 min after administration): 106.15 ± 23.20
- Adrenal gland/kidney ratio of radioactivity accumulation ([3]; 30 min after administration): 12.16 ± 7.12
- Adrenal gland/liver ratio of radioactivity accumulation ([3]; 30 min after administration): 17.77 ± 9.08
- Adrenal gland/muscle ratio of radioactivity accumulation ([3]; 30 min after administration): 98.15 ± 67.95
- Adrenal gland/small intestine ratio of radioactivity accumulation ([3]; 30 min after administration): 3.25 ± 1.07
- Radioactivity distribution Adrenal gland ([3]; 30 min after administration): 15.46 ± 8.64 % ID/g
- Radioactivity distribution Bladder (including urine) ([3]; 30 min after administration): 1.13 ± 0.19 % ID/g
- Radioactivity distribution Blood ([3]; 30 min after administration): 0.10 ± 0.02 % ID/g
- Radioactivity distribution Fat ([3]; 30 min after administration): 0.12 ± 0.03 % ID/g
- Radioactivity distribution Femur ([3]; 30 min after administration): 0.83 ± 0.03 % ID/g
- Radioactivity distribution Heart ([3]; 30 min after administration): 0.64 ± 0.04 % ID/g
- Radioactivity distribution Kidney ([3]; 30 min after administration): 1.65 ± 0.27 % ID/g
- Radioactivity distribution Large intestine ([3]; 30 min after administration): 0.14 ± 0.02 % ID/g
- Radioactivity distribution Liver ([3]; 30 min after administration): 1.89 ± 0.21 % ID/g
- Radioactivity distribution Lung ([3]; 30 min after administration): 0.97 ± 0.10 % ID/g
- Radioactivity distribution Muscle (lower limbs) ([3]; 30 min after administration): 0.16 ± 0.02 % ID/g
- Radioactivity distribution Remaining whole body ([3]; 30 min after administration): 0.27 ± 0.01 % ID/g
- Radioactivity distribution Small intestine ([3]; 30 min after administration): 3.40 ± 0.80 % ID/g
- Radioactivity distribution Spleen ([3]; 30 min after administration): 6.71 ± 0.48 % ID/g
- Radioactivity distribution Stomach ([3]; 30 min after administration): 0.61 ± 0.14 % ID/g
- Radioactivity distribution Testis ([3]; 30 min after administration): 0.05 ± 0.01 % ID/g
- Radioactivity distribution Whole brain ([3]; 30 min after administration): 0.01 ± 0.00 % ID/g
- Adrenal gland/blood ratio of radioactivity accumulation ([3]; 60 min after administration): 235.46 ± 58.57
- Adrenal gland/fat ratio of radioactivity accumulation ([3]; 60 min after administration): 108.45 ± 23.85
- Adrenal gland/kidney ratio of radioactivity accumulation ([3]; 60 min after administration): 13.73 ± 3.51
- Adrenal gland/liver ratio of radioactivity accumulation ([3]; 60 min after administration): 20.07 ± 5.16
- Adrenal gland/muscle ratio of radioactivity accumulation ([3]; 60 min after administration): 124.82 ± 30.33
- Adrenal gland/small intestine ratio of radioactivity accumulation ([3]; 60 min after administration): 2.42 ± 0.71
- Radioactivity distribution Adrenal gland ([3]; 60 min after administration): 18.65 ± 1.67 % ID/g
- Radioactivity distribution Bladder (including urine) ([3]; 60 min after administration): 3.04 ± 1.32 % ID/g
- Radioactivity distribution Blood ([3]; 60 min after administration): 0.06 ± 0.01 % ID/g
- Radioactivity distribution Fat ([3]; 60 min after administration): 0.12 ± 0.04 % ID/g
- Radioactivity distribution Femur ([3]; 60 min after administration): 0.90 ± 0.10 % ID/g
- Radioactivity distribution Heart ([3]; 60 min after administration): 0.56 ± 0.01 % ID/g
- Radioactivity distribution Kidney ([3]; 60 min after administration): 1.23 ± 0.01 % ID/g
- Radioactivity distribution Large intestine ([3]; 60 min after administration): 0.55 ± 0.52 % ID/g
- Radioactivity distribution Liver ([3]; 60 min after administration): 0.96 ± 0.10 % ID/g
- Radioactivity distribution Lung ([3]; 60 min after administration): 0.78 ± 0.03 % ID/g
- Radioactivity distribution Muscle (lower limbs) ([3]; 60 min after administration): 0.14 ± 0.01 % ID/g
- Radioactivity distribution Remaining whole body ([3]; 60 min after administration): 0.28 ± 0.04 % ID/g
- Radioactivity distribution Small intestine ([3]; 60 min after administration): 3.98 ± 1.32 % ID/g
- Radioactivity distribution Spleen ([3]; 60 min after administration): 5.62 ± 1.11 % ID/g
- Radioactivity distribution Stomach ([3]; 60 min after administration): 0.89 ± 0.21 % ID/g
- Radioactivity distribution Testis ([3]; 60 min after administration): 0.05 ± 0.01 % ID/g
- Radioactivity distribution Whole brain ([3]; 60 min after administration): 0.01 ± 0.00 % ID/g
